In ChEMBL document CHEMBL5137058, “Therapeutic Strategies to Target the Androgen Receptor” (J Med Chem, 2022):

Key:
[1] = molecular target: T1, Protein cereblon/Androgen receptor/Cullin-4A (Homo sapiens, UniProt P10275+Q96SW2+Q13619); experiment: Protac activity at CRBN/Cullin 4A/Androgen receptor in human VCaP cells assessed as Androgen receptor degradation; format: cell-based
[2] = molecular target: T1, Protein cereblon/Androgen receptor/Cullin-4A; experiment: Protac activity at CRBN/Cullin 4A/Androgen receptor in human LNCaP cells assessed as Androgen receptor degradation; format: cell-based
[3] = Oral bioavailability in mouse; format: ADME, organism-based; conditions: in vivo
[4] = molecular target: T2, Androgen receptor (Homo sapiens) (UniProt P10275); experiment: Induction of degradation of Androgen receptor in human LNCaP cells; format: cell-based
T2 sequence (whole entry): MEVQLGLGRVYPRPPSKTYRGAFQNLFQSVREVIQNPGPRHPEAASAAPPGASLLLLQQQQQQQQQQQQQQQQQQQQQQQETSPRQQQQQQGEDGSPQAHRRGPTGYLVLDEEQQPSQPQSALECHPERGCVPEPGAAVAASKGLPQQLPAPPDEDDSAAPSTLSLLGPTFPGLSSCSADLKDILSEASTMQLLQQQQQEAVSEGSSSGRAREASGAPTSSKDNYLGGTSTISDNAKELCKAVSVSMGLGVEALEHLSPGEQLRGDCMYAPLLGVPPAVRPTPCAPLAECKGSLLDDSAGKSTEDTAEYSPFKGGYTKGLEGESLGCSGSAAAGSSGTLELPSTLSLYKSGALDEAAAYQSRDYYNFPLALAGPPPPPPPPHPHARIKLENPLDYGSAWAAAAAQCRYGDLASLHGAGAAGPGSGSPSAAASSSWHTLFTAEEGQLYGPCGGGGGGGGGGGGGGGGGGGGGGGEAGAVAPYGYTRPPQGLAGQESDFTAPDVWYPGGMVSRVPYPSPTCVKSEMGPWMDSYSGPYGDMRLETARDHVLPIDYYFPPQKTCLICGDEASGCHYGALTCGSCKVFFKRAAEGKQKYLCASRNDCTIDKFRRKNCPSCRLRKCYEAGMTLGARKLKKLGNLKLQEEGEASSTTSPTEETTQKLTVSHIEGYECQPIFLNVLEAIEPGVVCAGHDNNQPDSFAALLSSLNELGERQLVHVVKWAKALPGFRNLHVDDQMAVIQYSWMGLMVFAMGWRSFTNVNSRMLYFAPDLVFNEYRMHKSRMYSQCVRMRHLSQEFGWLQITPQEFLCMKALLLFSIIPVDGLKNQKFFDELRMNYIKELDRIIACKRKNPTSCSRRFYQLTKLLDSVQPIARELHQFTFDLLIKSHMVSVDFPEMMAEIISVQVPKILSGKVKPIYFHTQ

Androgen receptor [5] = molecular target: T3, Androgen receptor (Homo sapiens, UniProt P10275); experiment: Binding affinity to human Androgen receptor
T3 sequence (P10275 whole entry): T2 sequence (whole entry)

Androgen receptor [6] = molecular target: T3, Androgen receptor; experiment: Agonist activity at human Androgen receptor
Androgen receptor [7] = molecular target: Androgen receptor (Homo sapiens, UniProt P10275, T878A); experiment: Binding affinity to bicalutamide-resistant Androgen receptor T878A mutant (unknown origin)
Sequence of Androgen receptor (Homo sapiens, UniProt P10275, T878A) (P10275 whole entry T878A): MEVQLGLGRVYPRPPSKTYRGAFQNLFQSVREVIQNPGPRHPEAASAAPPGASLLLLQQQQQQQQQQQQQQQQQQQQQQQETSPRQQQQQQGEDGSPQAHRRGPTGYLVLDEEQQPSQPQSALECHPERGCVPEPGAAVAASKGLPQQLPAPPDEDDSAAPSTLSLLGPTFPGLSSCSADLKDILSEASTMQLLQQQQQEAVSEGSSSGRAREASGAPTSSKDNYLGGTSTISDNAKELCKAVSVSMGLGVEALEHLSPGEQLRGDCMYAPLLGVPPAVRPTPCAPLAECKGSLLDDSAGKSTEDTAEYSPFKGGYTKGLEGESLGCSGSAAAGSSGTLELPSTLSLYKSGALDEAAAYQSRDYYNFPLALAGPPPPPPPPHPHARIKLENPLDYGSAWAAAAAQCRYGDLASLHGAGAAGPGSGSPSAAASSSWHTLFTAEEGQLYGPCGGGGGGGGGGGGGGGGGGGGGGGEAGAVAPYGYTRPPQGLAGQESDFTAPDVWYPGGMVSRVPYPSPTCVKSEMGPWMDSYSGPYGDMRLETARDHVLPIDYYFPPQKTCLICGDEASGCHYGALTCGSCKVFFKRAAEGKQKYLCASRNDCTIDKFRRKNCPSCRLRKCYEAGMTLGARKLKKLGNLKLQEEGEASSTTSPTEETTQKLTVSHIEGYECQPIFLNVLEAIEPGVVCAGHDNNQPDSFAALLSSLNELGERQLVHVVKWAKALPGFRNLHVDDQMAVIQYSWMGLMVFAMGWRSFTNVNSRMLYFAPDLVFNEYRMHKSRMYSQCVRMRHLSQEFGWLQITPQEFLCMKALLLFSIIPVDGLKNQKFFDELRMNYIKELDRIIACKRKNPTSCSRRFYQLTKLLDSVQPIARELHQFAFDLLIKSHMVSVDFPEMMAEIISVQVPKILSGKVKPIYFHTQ

SC-3 = experiment: Antiproliferative activity against mouse SC-3 cells; format: functional, cell-based
Androgen receptor [8] = molecular target: Androgen receptor (Mus musculus, UniProt P19091); experiment: Agonist activity at Androgen receptor (unknown origin) transfected in mouse C2C12 cells measured by luciferase reporter assay; format: cell-based
Sequence of Androgen receptor (Mus musculus, UniProt P19091) (P19091 whole entry): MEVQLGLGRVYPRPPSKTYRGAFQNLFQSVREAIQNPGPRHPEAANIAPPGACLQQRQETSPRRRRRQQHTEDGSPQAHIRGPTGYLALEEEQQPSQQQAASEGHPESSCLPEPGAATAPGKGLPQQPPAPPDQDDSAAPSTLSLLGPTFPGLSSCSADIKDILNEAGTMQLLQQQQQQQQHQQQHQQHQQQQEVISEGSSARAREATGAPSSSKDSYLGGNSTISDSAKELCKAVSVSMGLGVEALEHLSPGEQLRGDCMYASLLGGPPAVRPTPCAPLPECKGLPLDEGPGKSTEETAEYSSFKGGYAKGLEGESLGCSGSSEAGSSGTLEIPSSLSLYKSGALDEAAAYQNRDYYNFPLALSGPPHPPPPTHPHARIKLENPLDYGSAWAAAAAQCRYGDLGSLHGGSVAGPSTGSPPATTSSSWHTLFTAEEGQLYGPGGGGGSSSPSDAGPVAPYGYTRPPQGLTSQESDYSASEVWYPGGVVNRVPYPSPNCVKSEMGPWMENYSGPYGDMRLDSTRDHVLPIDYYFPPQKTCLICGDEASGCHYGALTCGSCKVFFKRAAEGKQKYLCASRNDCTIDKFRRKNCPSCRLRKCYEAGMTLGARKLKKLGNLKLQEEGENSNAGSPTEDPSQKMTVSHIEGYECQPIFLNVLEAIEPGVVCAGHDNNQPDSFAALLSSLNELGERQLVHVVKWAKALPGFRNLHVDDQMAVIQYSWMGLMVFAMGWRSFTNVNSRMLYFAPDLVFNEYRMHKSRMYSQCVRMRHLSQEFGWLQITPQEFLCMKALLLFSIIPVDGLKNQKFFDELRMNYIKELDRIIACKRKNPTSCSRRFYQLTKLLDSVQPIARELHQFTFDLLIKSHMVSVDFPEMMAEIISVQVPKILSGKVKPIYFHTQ

Androgen receptor [9] = molecular target: T3, Androgen receptor; experiment: Partial agonist activity at human Androgen receptor
[10] = Antiproliferative activity against refractory human prostate cancer cells; format: functional, cell-based; conditions: Prostate tumor cell line
Rattus norvegicus [11] = experiment: Anti-androgenic activity in male Wistar rat assessed as decrease in ventral prostate weight at 10 mg/kg, po administered for 15 days; format: functional; design: Activity: scale not given: the % may be the effect or the level left; conditions: time 15 day
Rattus norvegicus [12] = experiment: Anti-androgenic activity in testosterone-treated castrated rat assessed as reduction in prostate weight at 2 mg administered orally per day for 5 days; format: functional; design: Activity: scale not given: the % may be the effect or the level left; conditions: route po, time 5 day; for Activity: at 2 mg
[13] = molecular target: T2, Androgen receptor (Homo sapiens); experiment: Agonist activity at androgen receptor (unknown origin) at 1 uM relative to control; conditions: filed as agonist
Androgen receptor [14] = molecular target: T3, Androgen receptor; experiment: Antagonist activity at Androgen receptor in human MDA-MB-453 cells measured by SEAP reporter gene assay; format: cell-based
Androgen receptor [15] = molecular target: T3, Androgen receptor; experiment: Antagonist activity at Androgen receptor in human LNCaP cells measured by SEAP reporter gene assay; format: cell-based
Androgen receptor [16] = molecular target: T3, Androgen receptor; experiment: Displacement of [3H]DHT from Androgen receptor expressed in human MDA-MB-453 cells; format: cell-based
[17] = In vivo antagonist activity at Androgen receptor assessed as reduction in wax ester in golden hamster ear model; format: functional, Cricetinae; design: concentration or dose not given beside the values
Androgen receptor [18] = molecular target: T3, Androgen receptor; experiment: Antagonist activity at Androgen receptor in human MDA-kb2 cells; format: cell-based
[19] = In vivo agonist activity at Androgen receptor in castrated male rat assessed as increase in levator ani muscle weight at 0.75 mg/kg, po administered for 14 days; format: functional; conditions: time 14 day
[20] = In vivo agonist activity at Androgen receptor in castrated male rat assessed as increase in prostate weight at 0.75 mg/kg, po administered for 14 days; format: functional; conditions: time 14 day
[21] = molecular target: GABA-A receptor; anion channel; experiment: Binding affinity to GABA A receptor (unknown origin); format: protein-complex assay, Homo sapiens
Androgen receptor [22] = molecular target: T3, Androgen receptor; experiment: Agonist activity to human Androgen receptor in African green monkey COS-7 cells measured by luciferase reporter assay; format: cell-based
LNCaP = experiment: Antiproliferative activity against human LNCaP cells; format: functional, cell-based

T1 sequence (Q96SW2 whole entry, one chain of several): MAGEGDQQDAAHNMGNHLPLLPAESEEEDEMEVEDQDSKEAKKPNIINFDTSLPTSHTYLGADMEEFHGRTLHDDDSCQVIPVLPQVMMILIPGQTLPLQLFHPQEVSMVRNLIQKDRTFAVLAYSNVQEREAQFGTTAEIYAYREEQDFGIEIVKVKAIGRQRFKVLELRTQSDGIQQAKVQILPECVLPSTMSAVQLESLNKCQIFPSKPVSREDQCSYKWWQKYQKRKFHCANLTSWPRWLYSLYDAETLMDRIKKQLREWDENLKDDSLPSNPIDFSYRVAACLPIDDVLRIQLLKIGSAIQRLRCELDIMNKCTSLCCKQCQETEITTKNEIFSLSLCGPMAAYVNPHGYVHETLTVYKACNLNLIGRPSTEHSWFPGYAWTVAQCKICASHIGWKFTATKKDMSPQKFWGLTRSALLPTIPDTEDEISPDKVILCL
T1 sequence (Q13619 whole entry, one chain of several): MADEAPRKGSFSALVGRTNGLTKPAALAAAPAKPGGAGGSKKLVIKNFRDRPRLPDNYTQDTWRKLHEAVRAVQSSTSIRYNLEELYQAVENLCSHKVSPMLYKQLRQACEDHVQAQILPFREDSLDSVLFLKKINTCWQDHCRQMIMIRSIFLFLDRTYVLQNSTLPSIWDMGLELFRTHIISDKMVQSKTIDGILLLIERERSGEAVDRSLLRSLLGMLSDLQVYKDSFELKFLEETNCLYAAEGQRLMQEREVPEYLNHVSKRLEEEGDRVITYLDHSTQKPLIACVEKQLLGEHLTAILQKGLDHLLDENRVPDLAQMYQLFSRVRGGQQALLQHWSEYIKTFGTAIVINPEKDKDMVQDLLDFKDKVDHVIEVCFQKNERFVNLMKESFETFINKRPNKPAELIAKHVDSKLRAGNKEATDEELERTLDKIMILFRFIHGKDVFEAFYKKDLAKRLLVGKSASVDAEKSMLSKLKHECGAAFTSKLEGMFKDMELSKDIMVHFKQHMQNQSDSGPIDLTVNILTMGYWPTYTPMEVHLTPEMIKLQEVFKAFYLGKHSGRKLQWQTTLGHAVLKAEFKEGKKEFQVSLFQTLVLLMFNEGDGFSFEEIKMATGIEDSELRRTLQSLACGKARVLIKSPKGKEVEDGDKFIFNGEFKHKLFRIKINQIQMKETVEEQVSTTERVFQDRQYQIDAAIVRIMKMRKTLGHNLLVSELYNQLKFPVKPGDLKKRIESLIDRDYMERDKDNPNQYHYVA

Structure (SMILES): CN(c1ccc(C#N)c(Cl)c1)[C@H]1CC[C@H](NC(=O)c2ccc(N3CCN(C4CN(c5ccc6c(c5)C(=O)N(C5CCC(=O)NC5=O)C6=O)C4)CC3)cc2)CC1 (some centres not stated)
- DC50 [1]: < 0.1 nM
- DC50 [2]: < 0.1 nM
- bioavailability [3]: 51%

Structure (SMILES): CC1(C)C(=O)N(c2ccc(C#N)c(C(F)(F)F)c2)C(=S)N1CCCC(=O)NCCOCCOC(=O)CC12CC3CC(CC(C3)C1)C2
- Activity [4]: > 50%

Structure (SMILES): CC(C)(C)OC(=O)c1cccc2oc(=O)c3c(ccc4[nH]c(=O)cc(C(F)(F)F)c43)c12
- Ki (Androgen receptor [5]): 8.7 nM
- EC50 (Androgen receptor [6]): 1.1 nM

Structure (SMILES): Cn1cc(N(Cc2ccccc2)c2ccc([N+](=O)[O-])cc2)cc1C(=O)N1CCCC1
- Ki (Androgen receptor [7]): 6 nM
- IC50 (SC-3): 440 nM

Structure (SMILES): CO[C@@H]1C(c2ccc(C#N)c(Cl)c2C)=NN2CC[C@H](O)[C@@H]12
- EC50 (Androgen receptor [8]): 0.5 nM

Structure (SMILES): C[C@@H]1CC[C@H]([C@@H](O)C(F)(F)F)N1c1ccc2[nH]c(=O)cc(C(F)(F)F)c2c1 [LGD-2941]
- Ki (Androgen receptor [5]): 6.5 nM

Structure (SMILES): C[C@@]1(c2ccc(O)cc2)NC(=O)N(c2ccc(C#N)c(C(F)(F)F)c2)C1=O
- IC50 (Androgen receptor [9]): 0.9 nM

Structure (SMILES): COc1cc(N2C(=O)C(C)(C)c3cc(-c4cccnc4OC)ccc32)ccc1C#N
- IC50 [10]: 79.6 nM

Structure (SMILES): C[C@@H]1CN(c2ccc(C#N)c(C(F)(F)F)c2)[C@@H](C)CN1C(=O)Nc1ccc(C(F)(F)F)nc1
- ED50 (Rattus norvegicus [11]; Rattus norvegicus, Wistar, 360 h): 2.2 mg/kg/day
- Activity (Rattus norvegicus [11]; dose 10 mg/kg): 67%

Structure (SMILES): Cc1c(C(C)(O)C(F)(F)F)[nH]c2cc(C(F)(F)F)c(C#N)cc12 (configuration not stated)
- ID50 (Rattus norvegicus [12]): 0.13 mg/day
- Activity (Rattus norvegicus [12]): 80%

Structure (SMILES): CC1(C)CN(CCC#N)C(=O)[C@@H]1Oc1ccc(C#N)c(C(F)(F)F)c1
- Activity [13]: 89%

Structure (SMILES): CC(C)N1C[C@@]2(C)O[C@](C)(C1)[C@H]1C(=O)N(c3ccc(C#N)c(C(F)(F)F)c3)C(=O)[C@H]12
- IC50 (Androgen receptor [14]): 32 nM
- IC50 (Androgen receptor [15]): 125 nM
- Ki (Androgen receptor [16]): 14 nM

Structure (SMILES): N#Cc1ccc([C@H]2CCCC[C@H]2O)cc1C(F)(F)F
- Activity [17]: 85%
- IC50 (Androgen receptor [18]): 90 nM
- IC50 (Androgen receptor [5]): 26 nM

Structure (SMILES): Cc1c(N2C3CCC2CC(C)(O)C3)ccc(C#N)c1Cl (configuration not stated)
- IC50 (Androgen receptor [5]): 1 nM
- Activity [19]: 68%
- Activity [20]: 21%

Structure (SMILES): C[C@@]12O[C@@](C)(C[C@H]1O)[C@@H]1C(=O)N(c3ccc(C#N)c(I)c3)C(=O)[C@@H]12
- IC50 (Androgen receptor [14]): 19 nM
- Ki (Androgen receptor [16]): 2.4 nM

Structure (SMILES): CNC(=O)c1ccc(N2C(=S)N(c3cnc(C#N)c(C(F)(F)F)c3)C(=O)C23CCC3)cc1F [APALUTAMIDE]
- IC50 [21]: 3000 nM

Structure (SMILES): CC1(C)CN(CCC#N)C(=O)[C@@H]1Oc1ccc(C#N)c(Cl)c1
- Activity [13]: 89%

Structure (SMILES): Cc1ccccc1Sc1ccc(C#N)cc1Cl
- Activity [17]: >80%

Structure (SMILES): C[C@H]1[C@@H](O)CCN1c1ccc(C#N)c2ccccc12
- IC50 (Androgen receptor [5]): 2.4 nM
- EC50 (Androgen receptor [22]): 0.32 nM

Structure (SMILES): CNC(=O)c1ccc(N2C(=S)N(c3ccc(C#N)c(C(F)(F)F)c3)C(=O)C2(C)C)cc1F [ENZALUTAMIDE]
- IC50 [21]: 3000 nM
- IC50 (LNCaP): 36 nM

Structure (SMILES): Fc1ccc(Cn2c(CC(F)(F)F)nc3cc(Cl)c(Cl)cc32)cc1
- ID50 (Rattus norvegicus [12]): 0.13 mg/day
- Activity (Rattus norvegicus [12]): 84%

Structure (SMILES): Cc1c(N2CC[C@](C)(O)[C@@H]2C)ccc(C#N)c1Cl
- IC50 (Androgen receptor [5]): 1 nM
- EC50 (Androgen receptor [22]): 0.29 nM

Structure (SMILES): C[C@]12COC(=O)C[C@@H]1CC[C@@H]1[C@@H]2CC[C@@]2(C)[C@H]1CC[C@]2(C)O [OXANDROLONE]
- Ki (Androgen receptor [5]): 62 nM

Structure (SMILES): N#Cc1ccc(-c2ccccc2O)cc1C(F)(F)F
- Activity [17]: 86%
- IC50 (Androgen receptor [18]): 0.2 nM
